Data on one compound can be found in patent EP0532446A1, “Use of xanthines in the treatment or prevention of hypeoglycemia” (NOVO NORDISK A/S, priority 1991, dated 1993).

Several values for one entry are separate records, joined by “and”; a condition that tells them apart may be missing. Equal values may be shown once.

Common to all, as to assay type: in vivo
Test [1] in a line: Influence of theophyllamine on the blood glucose level after insulin-induced hypoglycaemia in diabetic patients. The method, then: Under carefully controlled conditions hypoglycaemia was induced in each of nine diabetic patients by injection of Actrapid® Human insulin, 0.15 IU/kg (available from Novo Nordisk A/S, Bagsvaerd, Denmark). The blood glucose level was monitored from just before the injection of the insulin took place until 2 hours after. The basal level, the nadir level and the level after 1 hour and 2 hours for each subject are given in Table 2 under the entry "placebo".
On a different day a study similar to the one described above was performed on the same patients, the only difference being that in this second study theophyllamine was administered concomitantly with the insulin. The theophyllamine was administered in the form of a bolus injection of 220 mg per person followed by a constant rate infusion of theophyllamine of 2,5 mg/kg body weight/hour. The corresponding glucose levels are given in Table 2 under the entry "theophyllamine".

Test [2] can be described thus: Awareness of early hypoglycaemia warning symptoms in diabetic patients taking theophyllamine regularly. The note with it: some diabetic patients who have taken theophyllamine regularly as a preventive measure. The source says: Usually hypoglycaemia can be relieved by administration of glucose or glucagon. Normally, but not always, a hypoglycaemic episode is preceded by some early warning symptoms which makes it possible for the patient to take measures against it. Throughout this specification the diabetic patients' attention to these early warning symptoms is in accordance with the common usage referred to as the "awareness".

A short description of test [3]: Influence of theophyllamine on the blood glucose level after insulin-induced hypoglycaemia in healthy subjects. The method, then:
Under carefully controlled conditions hypoglycaemia was induced in each of eleven healty subjects by injection of Actrapid® Human insulin, 0.15 IU/kg (available from Novo Nordisk A/S, Bagsvaerd, Denmark). The blood glucose level was monitored from just before the injection of the insulin took place until 2 hours after. The basal level, the nadir level and the level after 1 hour and 2 hours for each subject are given in Table 1 under the entry "placebo".
On a different day a study similar to the one described above was performed on the same subjects, the only difference being that in this second study theophyllamine was administered concomitantly with the insulin. The theophyllamine was administered in the form of a bolus injection of 220 mg per person given at the same time as the insulin followed by a constant rate infusion of theophyllamine of 2,5 mg/kg body weight/hour. The corresponding glucose levels are given in Table 1 under the entry "theophyllamine".

Where [4] appears, read: diabetic patients, given concomitantly with the insulin.
Where [5] appears, read: individual diabetic patients No. 1-9, insulin 0.15 IU/kg, theophyllamine bolus 220 mg per person + infusion 2,5 mg/kg body weight/hour.
[6] abbreviates: mean of nine diabetic patients, insulin 0.15 IU/kg, theophyllamine bolus 220 mg per person + infusion 2,5 mg/kg body weight/hour.
Where [7] appears, read: healthy subjects, given concomitantly with the insulin.
Where [8] appears, read: individual healthy subjects No. 1-11, insulin 0.15 IU/kg, theophyllamine bolus 220 mg per person + infusion 2,5 mg/kg body weight/hour.
Setting [9] is: mean of eleven healthy subjects, insulin 0.15 IU/kg, theophyllamine bolus 220 mg per person + infusion 2,5 mg/kg body weight/hour.

`Cn1c(=O)c2[nH]cnc2n(C)c1=O` [Theophyllamine, theophyllamine]: in test [1] (setting [4]), the “glucose level 1 hour after the administration of insulin compared with insulin alone (placebo)” value is listed as “higher”, the “glucose level 2 hours after the administration of insulin compared with insulin alone (placebo)” value was “higher” and the “nadir level compared with insulin alone (placebo)” value is recorded as “higher”. For the same compound, in test [1] (setting [5]), the “Nadir Level (blood glucose)” value is 1.5 mmol/l (2×) and 4.1 mmol/l and 1.1 mmol/l (2×) and 1.7 mmol/l and 2.6 mmol/l and 1.4 mmol/l and 2.2 mmol/l; the “blood glucose level 1 hr after insulin” value is 2.9 mmol/l (2×) and 2.1 mmol/l (3×) and 4.4 mmol/l and 1.9 mmol/l and 2.5 mmol/l (2×); the “blood glucose level 2 hr after insulin” value was 4.8 mmol/l and 3.7 mmol/l (2×) and 6.4 mmol/l and 3.1 mmol/l and 3.0 mmol/l (3×) and 3.8 mmol/l. The “Basal Level (blood glucose)” value in test [1] (individual diabetic patients No. 1-9, just before injection of insulin 0.15 IU/kg and theophyllamine) was 4.8 mmol/l and 4.5 mmol/l (2×) and 5.5 mmol/l and 4.6 mmol/l and 5.6 mmol/l and 4.7 mmol/l and 6.0 mmol/l and 4.9 mmol/l. In test [1] (setting [6]), the “Nadir level (blood glucose), MEAN” value came to 2.2 mmol/L; the “blood glucose level 1 hr after insulin, MEAN” value amounted to 2.6 mmol/L; the “blood glucose level 2 hr after insulin, MEAN” value worked out at 3.8 mmol/L. In test [1] (mean of nine diabetic patients, just before injection of insulin 0.15 IU/kg and theophyllamine), the “Basal Level (blood glucose), MEAN” value stood at 5.0 mmol/L. In addition, in test [2], the awareness result was “improved awareness”. Besides, in test [3] (setting [7]), the “glucose level 1 hour after the administration of insulin compared with insulin alone (placebo)” value is given as “higher”, the “glucose level 2 hours after the administration of insulin compared with insulin alone (placebo)” value is reported as “higher” and the “nadir level compared with insulin alone (placebo)” value is on record as “higher”. Further, in test [3] (setting [8]), the “Nadir Level (blood glucose)” value was 1.5 mmol/l (2×) and 1.3 mmol/l (2×) and 1.4 mmol/l and 2.0 mmol/l (2×) and 1.9 mmol/l and 1.6 mmol/l and 1.7 mmol/l and 2.4 mmol/l; the “blood glucose level 1 hr after insulin” value was 2.7 mmol/L and 2.4 mmol/L and 2.3 mmol/L and 3.1 mmol/L and 2.8 mmol/L and 2.5 mmol/L and 3.0 mmol/L and 3.8 mmol/L and 2.6 mmol/L and 3.4 mmol/L and 2.0 mmol/L; the “blood glucose level 2 hr after insulin” value is 3.9 mmol/l and 2.6 mmol/l and 3.1 mmol/l and 4.3 mmol/l (2×) and 4.1 mmol/l and 3.5 mmol/l (2×) and 4.5 mmol/l and 5.4 mmol/l and 5.1 mmol/l. Further, the “Basal Level (blood glucose)” value in test [3] (individual healthy subjects No. 1-11, just before injection of insulin 0.15 IU/kg and theophyllamine) was 5.2 mmol/l (4×) and 5.0 mmol/l (2×) and 5.9 mmol/l and 5.8 mmol/l (2×) and 5.6 mmol/l and 5.7 mmol/l. In test [3] (setting [9]), the “Nadir level (blood glucose), MEAN” value came to 1.7 mmol/L; the “blood glucose level 1 hr after insulin, MEAN” value is 2.8 mmol/L; the “blood glucose level 2 hr after insulin, MEAN” value was found to be 4.0 mmol/L. Moreover, the “Basal Level (blood glucose), MEAN” value in test [3] (mean of eleven healthy subjects, just before injection of insulin 0.15 IU/kg and theophyllamine) is 5.4 mmol/L.
